Drawing on ChEMBL document CHEMBL4825745, “Novel Substituted Piperidine-2,6-dione Derivatives for Treating Sickle Cell Disease and β-Thalassemia” (ACS Med Chem Lett, 2021), this text covers AC50 for six compounds.

The target in the experiment is Protein Wiz (Homo sapiens, UniProt O95785). Put plainly: Induction of HiBit-tagged WIZ protein degradation expressed in HEK293T cells assessed as reduction in WIZ protein level incubated for 18 hrs by luminescence based assay. In kind it is cell-based.
Chain of Protein Wiz (O95785 whole entry): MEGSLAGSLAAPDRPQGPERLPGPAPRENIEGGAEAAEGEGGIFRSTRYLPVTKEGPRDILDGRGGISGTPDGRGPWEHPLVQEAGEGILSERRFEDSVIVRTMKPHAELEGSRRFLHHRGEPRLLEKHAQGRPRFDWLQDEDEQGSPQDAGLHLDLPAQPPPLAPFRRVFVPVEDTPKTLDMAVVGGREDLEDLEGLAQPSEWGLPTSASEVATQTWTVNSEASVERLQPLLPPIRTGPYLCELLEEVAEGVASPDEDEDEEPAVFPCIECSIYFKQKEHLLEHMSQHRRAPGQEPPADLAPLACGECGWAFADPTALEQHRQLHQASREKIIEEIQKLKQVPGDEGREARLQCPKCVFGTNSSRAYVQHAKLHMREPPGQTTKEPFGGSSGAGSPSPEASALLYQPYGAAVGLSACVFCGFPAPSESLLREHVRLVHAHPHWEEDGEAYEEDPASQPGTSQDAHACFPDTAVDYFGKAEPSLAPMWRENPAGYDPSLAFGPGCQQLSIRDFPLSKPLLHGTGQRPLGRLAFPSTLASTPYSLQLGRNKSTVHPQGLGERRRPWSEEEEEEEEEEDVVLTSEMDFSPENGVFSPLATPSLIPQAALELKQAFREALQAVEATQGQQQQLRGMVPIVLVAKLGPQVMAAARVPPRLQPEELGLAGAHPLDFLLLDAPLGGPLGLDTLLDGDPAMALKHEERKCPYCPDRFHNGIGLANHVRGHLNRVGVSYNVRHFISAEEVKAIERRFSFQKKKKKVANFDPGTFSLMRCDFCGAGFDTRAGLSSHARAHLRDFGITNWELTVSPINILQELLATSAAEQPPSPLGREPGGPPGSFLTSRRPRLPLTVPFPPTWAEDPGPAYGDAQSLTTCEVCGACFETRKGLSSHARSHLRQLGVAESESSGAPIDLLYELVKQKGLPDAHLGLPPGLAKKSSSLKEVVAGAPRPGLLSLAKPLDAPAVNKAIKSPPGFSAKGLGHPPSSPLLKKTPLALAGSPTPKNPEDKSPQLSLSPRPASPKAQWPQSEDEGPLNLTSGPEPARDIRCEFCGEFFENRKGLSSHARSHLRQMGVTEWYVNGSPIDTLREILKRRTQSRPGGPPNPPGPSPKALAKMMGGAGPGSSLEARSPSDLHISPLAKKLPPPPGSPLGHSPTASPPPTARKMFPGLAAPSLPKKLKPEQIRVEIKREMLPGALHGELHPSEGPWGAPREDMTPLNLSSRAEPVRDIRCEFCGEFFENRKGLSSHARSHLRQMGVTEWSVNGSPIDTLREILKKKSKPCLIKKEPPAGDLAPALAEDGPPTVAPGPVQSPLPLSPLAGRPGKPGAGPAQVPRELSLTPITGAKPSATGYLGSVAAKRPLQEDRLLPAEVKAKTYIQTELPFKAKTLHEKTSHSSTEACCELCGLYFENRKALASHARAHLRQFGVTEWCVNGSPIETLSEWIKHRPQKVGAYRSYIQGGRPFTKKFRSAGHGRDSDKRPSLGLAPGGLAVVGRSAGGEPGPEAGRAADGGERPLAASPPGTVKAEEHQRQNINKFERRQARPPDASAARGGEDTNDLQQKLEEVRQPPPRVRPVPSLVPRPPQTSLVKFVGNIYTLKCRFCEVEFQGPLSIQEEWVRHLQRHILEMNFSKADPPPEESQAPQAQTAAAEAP

With `CC(C)(C)c1ccc(CN2CCCC[C@@H]2COc2ccc3c(c2)CN(C2CCC(=O)NC2=O)C3=O)cc1` (stereo partly specified), the AC50 (as a rule, the concentration giving half of the maximal activity seen) was 0.083 nM.
The result for `O=C1CCC(N2Cc3cc(OC[C@H]4CCCCN4Cc4ccc(N5CCCCC5)cc4)ccc3C2=O)C(=O)N1` (stereo partly specified) reads 0.37 nM; that for `O=C1CCC(N2Cc3cc(OC[C@H]4CCCCN4Cc4ccc(C5(C(F)(F)F)CC5)cc4)ccc3C2=O)C(=O)N1` (stereo partly specified), 0.22 nM; that for `COc1ccc(CN2CCCC[C@@H]2COc2ccc3c(c2)CN(C2CCC(=O)NC2=O)C3=O)c(OC)c1` (stereo partly specified), 0.52 nM.
On to `O=C1CCC(N2Cc3cc(OC[C@H]4CCCCN4Cc4ccc(C5=CCOCC5)cc4)ccc3C2=O)C(=O)N1` (stereo partly specified), for which the AC50 came out at 0.35 nM.
`O=C1CCC(N2Cc3cc(OC[C@H]4CCCCN4Cc4ccc5c(c4)OC(F)(F)O5)ccc3C2=O)C(=O)N1` (stereo partly specified): the AC50 amounted to 0.47 nM.
